Earlier results on 1 compound are cited in patent US7259153B2, “Drug formulation and delivery using crystalline methylated cyclodextrins” (Supernus Pharmaceuticals, priority 2003, dated 2007).

The conditions of the series: set by the WHO; cited from earlier work.

SMILES strings stand for the structures.

Take `CC(O)CO` (stereo not shown) [propylene glycol]: the acceptable daily intake entry is “up to 25 mg/kg body weight”.
